Laboratory results from PubChem BioAssay AID1053159 (Broad Institute, 2014).

Tested on: HepG2 PCSK9 mRNA qRT-PCR, time course 0.5-28 h
Assay: PCSK9 mRNA reduction over time, late-stage follow-up, mechanism study for Trib1 inducer project, cell-based, HepG2, RT-PCR, time course (AID 1053159)
Conditions: dose 2.5; active compounds read low

`CN1C(=O)c2cc(NC(=O)c3ccc(C(F)(F)F)cc3)ccc2OC[C@@H]2O[C@H](CC(=O)NC3Cc4ccccc4C3)CC[C@@H]21` was tested, and the relative PCSK9 expression was 19%.
